Results taken from the CheMixHub drug solubility set.

Experiment: xn = mol fraction of the nth substance listed, in the solute-free solvent

COC(=O)C1=C(C)NC(C)=C(C(=O)OCC(C)C)C1c1ccccc1[N+](=O)[O-] (configuration not stated) + CCCO + O
solubility (g/100 g solution)
Conditions | 278.15 K | 283.15 K | 288.15 K | 293.15 K | 298.15 K | 303.15 K | 308.15 K | 313.15 K | 318.15 K
x2 = 0.03225 | 0.131 | 0.174 | 0.219 | 0.268 | 0.346 | 0.422 | 0.526 | 0.638 | 0.78
x2 = 0.06974 | 0.532 | 0.647 | 0.806 | 0.96 | 1.16 | 1.37 | 1.62 | 1.92 | 2.23
x2 = 0.1139 | 0.997 | 1.25 | 1.49 | 1.81 | 2.21 | 2.6 | 3.12 | 3.63 | 4.27
x2 = 0.1666 | 1.41 | 1.75 | 2.12 | 2.56 | 3.1 | 3.6 | 4.37 | 5.07 | 5.97
x2 = 0.2307 | 1.69 | 2.05 | 2.52 | 3.08 | 3.7 | 4.42 | 5.22 | 6.16 | 7.24
x2 = 0.3103 | 2.02 | 2.49 | 2.99 | 3.59 | 4.3 | 5.12 | 6.03 | 7.01 | 8.15
x2 = 0.4117 | 2.29 | 2.82 | 3.37 | 4.11 | 4.82 | 5.73 | 6.73 | 7.81 | 9.08
x2 = 0.5454 | 2.47 | 3.06 | 3.68 | 4.45 | 5.28 | 6.23 | 7.23 | 8.39 | 9.79
x2 = 0.7297 | 2.47 | 3.01 | 3.69 | 4.38 | 5.22 | 6.28 | 7.42 | 8.7 | 10

CN1CCN(C(=O)OC2c3nccnc3C(=O)N2c2ccc(Cl)cn2)CC1 (configuration not stated) + CC(C)=O + O
solubility (g/100 g solution)
Conditions | x2 = 0.3 | x2 = 0.4 | x2 = 0.5 | x2 = 0.6 | x2 = 0.7 | x2 = 0.8 | x2 = 0.9
288.15 K | 0.188 | 0.322 | 0.515 | 0.825 | 1.17 | 1.47 | 1.48
298.15 K | 0.259 | 0.425 | 0.644 | 1.04 | 1.52 | 1.9 | 1.94
308.15 K | 0.354 | 0.615 | 1.04 | 1.46 | 1.99 | 2.44 | 2.5
318.15 K | 0.545 | 0.801 | 1.35 | 1.88 | 2.53 | 3.29 | 3.5
328.15 K | 0.752 | 1.18 | 1.75 | 2.51 | 3.5 | 4.63 | 4.6

O=c1[nH]cc(F)c(=O)[nH]1 + CN(C)C=O + C1CCOC1
solubility (g/100 g solution)
Conditions | 283.15 K | 288.15 K | 293.15 K | 298.15 K | 303.15 K | 308.15 K | 313.15 K | 318.15 K | 323.15 K
x2 = 0.1978 | 0.137 | 0.174 | 0.209 | 0.264 | 0.33 | 0.423 | 0.551 | 0.66 | 0.816
x2 = 0.3967 | 0.188 | 0.24 | 0.293 | 0.37 | 0.468 | 0.581 | 0.735 | 0.883 | 1.07
x2 = 0.5967 | 0.283 | 0.352 | 0.434 | 0.533 | 0.653 | 0.814 | 1.01 | 1.24 | 1.51
x2 = 0.7978 | 0.461 | 0.564 | 0.685 | 0.829 | 0.996 | 1.23 | 1.51 | 1.84 | 2.23

O=c1[nH]cc(F)c(=O)[nH]1 + CO + C1CCOC1
solubility (g/100 g solution)
Conditions | 283.15 K | 288.15 K | 293.15 K | 298.15 K | 303.15 K | 308.15 K | 313.15 K | 318.15 K | 323.15 K
x2 = 0.36 | 0.152 | 0.171 | 0.193 | 0.219 | 0.254 | 0.294 | 0.348 | 0.403 | 0.473
x2 = 0.6 | 0.283 | 0.317 | 0.356 | 0.407 | 0.472 | 0.546 | 0.639 | 0.745 | 0.862
x2 = 0.7714 | 0.423 | 0.483 | 0.552 | 0.636 | 0.73 | 0.876 | 1.04 | 1.23 | 1.42
x2 = 0.9 | 0.58 | 0.665 | 0.789 | 0.914 | 1.05 | 1.25 | 1.43 | 1.65 | 1.85

Clc1ncnc2[nH]ccc12 + C1CCOC1 + CC#N
solubility (g/100 g solution)
Conditions | 278.15 K | 283.15 K | 288.15 K | 293.15 K | 298.15 K | 303.15 K | 308.15 K | 313.15 K | 318.15 K | 323.15 K
x2 = 0.1144 | 1.32 | 1.6 | 1.93 | 2.31 | 2.76 | 3.28 | 3.83 | 4.5 | 5.24 | 6.02
x2 = 0.2441 | 2.03 | 2.39 | 2.84 | 3.33 | 3.92 | 4.49 | 5.24 | 5.97 | 6.81 | 7.73
x2 = 0.3923 | 3.17 | 3.65 | 4.24 | 4.84 | 5.58 | 6.34 | 7.13 | 8.04 | 9.06 | 10.1
x2 = 0.4748 | 3.9 | 4.49 | 5.13 | 5.83 | 6.63 | 7.45 | 8.34 | 9.34 | 10.4 | 11.5
x2 = 0.5636 | 5.02 | 5.61 | 6.32 | 7.09 | 8 | 8.89 | 9.89 | 10.9 | 12 | 13.2
x2 = 0.7635 | 7.14 | 8 | 8.83 | 9.79 | 10.7 | 11.8 | 12.8 | 14 | 15.2 | 16.4

CCOC(=O)C1=CC2(CC)CCCN3CCc4c(n1c1ccccc41)C32 (configuration not stated) + CCO + O
solubility (g/100 g solution)
Conditions | 283.15 K | 288.15 K | 293.15 K | 298.15 K | 303.15 K | 308.15 K | 313.15 K | 318.15 K | 323.15 K
x2 = 0.2 | 0.00578 | 0.00816 | 0.0113 | 0.0153 | 0.0208 | 0.028 | 0.0375 | 0.0513 | 0.0683
x2 = 0.3 | 0.0454 | 0.0591 | 0.0768 | 0.0954 | 0.12 | 0.153 | 0.185 | 0.238 | 0.304
x2 = 0.4 | 0.106 | 0.138 | 0.178 | 0.211 | 0.277 | 0.346 | 0.421 | 0.524 | 0.668
x2 = 0.5 | 0.184 | 0.235 | 0.301 | 0.37 | 0.468 | 0.586 | 0.726 | 0.921 | 1.12
x2 = 0.6 | 0.257 | 0.331 | 0.43 | 0.52 | 0.639 | 0.824 | 0.996 | 1.25 | 1.54
x2 = 0.7 | 0.335 | 0.418 | 0.546 | 0.661 | 0.831 | 1.04 | 1.3 | 1.61 | 1.97
x2 = 0.8 | 0.372 | 0.479 | 0.612 | 0.757 | 0.941 | 1.21 | 1.47 | 1.87 | 2.26
x2 = 0.9 | 0.363 | 0.466 | 0.609 | 0.766 | 0.951 | 1.23 | 1.5 | 1.94 | 2.39

Clc1ncnc2[nH]ccc12 + C1CCOC1 + CO
solubility (g/100 g solution)
Conditions | 278.15 K | 283.15 K | 288.15 K | 293.15 K | 298.15 K | 303.15 K | 308.15 K | 313.15 K | 318.15 K | 323.15 K
x2 = 0.09054 | 4.18 | 4.85 | 5.59 | 6.45 | 7.41 | 8.85 | 9.6 | 10.8 | 12.2 | 13.6
x2 = 0.1993 | 6.2 | 7.11 | 8.13 | 9.15 | 10.3 | 11.6 | 12.9 | 14.3 | 15.9 | 17.4
x2 = 0.3323 | 8.17 | 9.22 | 10.3 | 11.4 | 12.7 | 14.1 | 15.4 | 17 | 18.5 | 20.2
x2 = 0.4107 | 8.75 | 9.76 | 10.9 | 12 | 13.4 | 14.6 | 16.1 | 17.5 | 19.1 | 20.7
x2 = 0.4989 | 9.02 | 10 | 11.1 | 12.2 | 13.5 | 14.8 | 16.1 | 17.5 | 18.9 | 20.5
x2 = 0.7134 | 8.95 | 9.87 | 10.8 | 11.8 | 13 | 14 | 15.2 | 16.5 | 17.7 | 19.1

O=c1ccc2ccccc2o1 + CO + O
solubility (g/100 g solution)
Conditions | 278.15 K | 283.15 K | 288.15 K | 293.15 K | 298.15 K | 303.15 K | 308.15 K | 313.15 K | 318.15 K
x2 = 0.1 | 0.0349 | 0.0594 | 0.105 | 0.171 | 0.28 | 0.435 | 0.655 | 0.988 | 1.41
x2 = 0.2 | 0.147 | 0.236 | 0.385 | 0.598 | 0.922 | 1.43 | 2.06 | 3.08 | 4.3
x2 = 0.3 | 0.262 | 0.479 | 0.869 | 1.6 | 2.58 | 4.47 | 7.35 | 12.8 | 19.9
x2 = 0.4 | 0.573 | 1.11 | 1.99 | 3.53 | 6.25 | 10.8 | 17.7 | 28.7 | 41.9
x2 = 0.5 | 1.13 | 1.96 | 3.86 | 6.41 | 11.2 | 18.6 | 28.4 | 43.2 | 59.6
x2 = 0.6 | 1.82 | 3.3 | 5.98 | 9.8 | 16 | 24.8 | 38.3 | 52.1 | 67
x2 = 0.7 | 2.64 | 4.53 | 7.8 | 12.7 | 20.2 | 30.4 | 42.9 | 59.2 | 73.3
x2 = 0.8 | 3.28 | 5.51 | 9.32 | 15.7 | 22.1 | 34.3 | 46.8 | 62.9 | 77.3
x2 = 0.9 | 4.13 | 6.53 | 11.1 | 17.5 | 25.5 | 36.7 | 50.3 | 65.3 | 79.6

CC(=O)Nc1ccc(OC(=O)c2ccccc2OC(C)=O)cc1 + CN(C)C=O + O
solubility (g/100 g solution)
Conditions | 278.15 K | 283.15 K | 288.15 K | 293.15 K | 298.15 K | 303.15 K | 308.15 K | 313.15 K | 318.15 K
x2 = 0.02666 | 0.00846 | 0.0119 | 0.016 | 0.0222 | 0.0297 | 0.0399 | 0.0526 | 0.0698 | 0.0891
x2 = 0.05806 | 0.0473 | 0.0628 | 0.084 | 0.109 | 0.141 | 0.18 | 0.232 | 0.291 | 0.365
x2 = 0.09556 | 0.235 | 0.295 | 0.376 | 0.471 | 0.571 | 0.703 | 0.866 | 1.05 | 1.27
x2 = 0.1412 | 0.633 | 0.777 | 0.947 | 1.16 | 1.39 | 1.68 | 1.97 | 2.35 | 2.77
x2 = 0.1978 | 1.3 | 1.55 | 1.82 | 2.17 | 2.52 | 2.94 | 3.41 | 3.9 | 4.5
x2 = 0.27 | 2.25 | 2.63 | 3.06 | 3.49 | 4.01 | 4.6 | 5.22 | 5.91 | 6.7
x2 = 0.3652 | 3.47 | 3.96 | 4.51 | 5.08 | 5.72 | 6.42 | 7.14 | 7.91 | 8.74
x2 = 0.4965 | 4.8 | 5.32 | 5.97 | 6.58 | 7.24 | 7.99 | 8.71 | 9.48 | 10.3
x2 = 0.6893 | 6.08 | 6.62 | 7.2 | 7.86 | 8.46 | 9.14 | 9.88 | 10.5 | 11.3
